# Experimental data: ChEMBL document CHEMBL4715696, “In vitro synergistic anticancer activity of the combination of T-type calcium channel blocker and chemotherapeutic agent in A549 cells” (Bioorg Med Chem Lett, 2016)
# Legend:
# A549 [1] = experiment: Induction of cell cycle arrest in human A549 cells assessed as accumulation at sub G1 phase at 5 uM after 24 hrs by flow cytometric analysis (reference value: 7.8%); type: functional
# A549 [2] = experiment: Induction of cell cycle arrest in human A549 cells assessed as accumulation at G2/M phase at 5 uM after 24 hrs by flow cytometric analysis (reference value: 21.6%); type: functional
# A549 [3] = experiment: Induction of cell cycle arrest in human A549 cells assessed as accumulation at G2/M phase at 5 uM after 48 hrs by flow cytometric analysis (reference value: 22.1 to 25.4 %); type: functional
# A549 [4] = experiment: Decrease in cell cycle associated protein expression in human A549 cells assessed as fold change in CDK2 expression at 5 uM after 48 hrs by Western blot analysis (reference value: 0.48); type: functional
# A549 [5] = experiment: Decrease in cell cycle associated protein expression in human A549 cells assessed as fold change in CDK4 expression at 2.5 uM after 48 hrs by Western blot analysis (reference value: 0.62); type: functional
# A549 [6] = experiment: Decrease in cell cycle associated protein expression in human A549 cells assessed as fold change in CDK4 expression at 10 uM after 48 hrs by Western blot analysis (reference value: 0.62 to 0.87); type: functional
# A549 [7] = experiment: Decrease in cell cycle associated protein expression in human A549 cells assessed as fold change in CDK4 expression at 10 uM after 6 hrs by Western blot analysis (reference value: 0.87); type: functional
# A549 [8] = experiment: Decrease in cell cycle associated protein expression in human A549 cells assessed as fold change in CDK4 expression at 10 uM after 12 hrs by Western blot analysis (reference value: 0.87); type: functional
# A549 [9] = experiment: Decrease in cell cycle associated protein expression in human A549 cells assessed as fold change in CDK4 expression at 10 uM after 24 hrs by Western blot analysis (reference value: 0.87); type: functional
# A549 [10] = experiment: Decrease in cell cycle associated protein expression in human A549 cells assessed as fold change in CDK6 expression at 10 uM after 24 hrs by Western blot analysis (reference value: 0.7); type: functional
# A549 [11] = experiment: Decrease in cell cycle associated protein expression in human A549 cells assessed as fold change in cyclin D1 expression at 5 uM after 48 hrs by Western blot analysis (reference value: 0.39); type: functional
# A549 [12] = experiment: Decrease in cell cycle associated protein expression in human A549 cells assessed as fold change in cyclin D1 expression at 10 uM after 6 hrs by Western blot analysis (reference value: 0.68); type: functional
# A549 [13] = experiment: Decrease in cell cycle associated protein expression in human A549 cells assessed as fold change in cyclin D1 expression at 10 uM after 24 hrs by Western blot analysis (reference value: 0.68); type: functional
# A549 [14] = experiment: Decrease in cell cycle associated protein expression in human A549 cells assessed as reduction in cyclin D2 expression at 10 uM by Western blot analysis; type: functional, cell-based; details: time 6-48 hrs, TDE = time-dependent effect
# A549 [15] = experiment: Decrease in cell cycle associated protein expression in human A549 cells assessed as fold change in cyclin D3 expression at 10 uM after 36 hrs by Western blot analysis (reference value: 1.09); type: functional
# A549 [16] = experiment: Decrease in cell cycle associated protein expression in human A549 cells assessed as fold change in cyclin E expression at 10 uM after 24 hrs by Western blot analysis (reference value: 0.55); type: functional
# [17] = Upregulation of p27KIP1 protein expression in human A549 cells assessed as fold change in expression at 5 uM after 48 hrs by Western blot analysis (reference value: 0.48); type: functional
# [18] = Upregulation of p27KIP1 protein expression in human A549 cells assessed as fold change in expression at 10 uM after 48 hrs by Western blot analysis (reference value: 0.48 to 0.83); type: functional
# [19] = Upregulation of p27KIP1 protein expression in human A549 cells assessed as fold change in expression at 10 uM after 6 hrs by Western blot analysis (reference value: 0.83); type: functional
# [20] = Upregulation of p27KIP1 protein expression in human A549 cells assessed as fold change in expression at 10 uM after 24 hrs by Western blot analysis (reference value: 0.83); type: functional
# [21] = Metabolic stability in rat liver microsomes assessed as parent compound remaining at 1 uM measured for 30 mins; type: ADME, Microsome; details: read-out: Stabilty
# [22] = Metabolic stability in human plasma assessed as parent compound remaining at 10 uM measured after 2 hrs; type: ADME, cell-free; details: read-out: Stabilty
# [23] = Protein binding in rat plasma at 10 uM after 4 hrs; type: ADME, cell-free; details: read-out: PPB (converted)
# A549 [24] = experiment: Potentiation of etoposide-induced cell cycle arrest in human A549 cells assessed as accumulation at sub G1 phase at 2.5 uM in presence of etoposide after 48 hrs by flow cytometric analysis (Rvb =33 %); type: functional
# A549 [25] = experiment: Potentiation of etoposide-induced cell cycle arrest in human A549 cells assessed as accumulation at G1 phase at 2.5 uM in presence of etoposide after 48 hrs by flow cytometric analysis (reference value: 36%); type: functional
# A549 [26] = experiment: Potentiation of etoposide-induced cell cycle arrest in human A549 cells assessed as accumulation at G1 phase at 10 uM in presence of etoposide after 48 hrs by flow cytometric analysis (reference value: 36%); type: functional
# A549 [27] = experiment: Potentiation of cisplatin-induced cell cycle arrest in human A549 cells assessed as accumulation at S phase at 5 uM in presence of cisplatin after 48 hrs by flow cytometric analysis (Rvb =15.8%); type: functional
# A549 [28] = experiment: Potentiation of cisplatin-induced cell cycle arrest in human A549 cells assessed as accumulation at G2/M phase at 2.5 uM in presence of cisplatin after 48 hrs by flow cytometric analysis (Rvb =52.9%); type: functional
# A549 [29] = experiment: Potentiation of cisplatin-induced cell cycle arrest in human A549 cells assessed as accumulation at G2/M phase at 5 uM in presence of cisplatin after 48 hrs by flow cytometric analysis (Rvb =52.9%); type: functional
# A549 [30] = experiment: Induction of cell cycle arrest in human A549 cells assessed as accumulation at S phase at 10 uM after 48 hrs by flow cytometric analysis (reference value: 10.4%); type: functional
# A549 [31] = experiment: Induction of cell cycle arrest in human A549 cells assessed as increase in cell accumulation at G1 phase after 48 hrs by flow cytometric analysis; type: functional, cell-based; details: dose 2.5-10 µM
# [32] = Increase in recruitment of […] p27KIP1 to CDK4 in human A549 cells assessed as fold change at 10 uM incubated for 12 hrs by immunoprecipitation/immunoblot analysis (reference value: 0.16); type: functional
# A549 [33] = experiment: Potentiation of etoposide-induced apoptosis in human A549 cells assessed as early apoptotic cells at 10 uM incubated for 48 hrs by AnnexinV-FITC/propidium iodide staining based flow cytometry (reference value: 19.1%); type: functional
# A549 [34] = experiment: Potentiation of etoposide-induced apoptosis in human A549 cells assessed as late apoptotic cells at 10 uM incubated for 48 hrs by AnnexinV-FITC/propidium iodide staining based flow cytometry (reference value: 12.6%); type: functional
# [35] = Solubility of the compound at pH 7.4; type: physicochemical; details: buffer
# [36] = Permeability of the compound by PAMPA assay; type: ADME; details: read-out: permeability
compound,measurement,setting,value
CN(C)C(=O)NCCCN(C)C1=Nc2ccccc2C(CC(=O)NCc2ccc(F)cc2)N1c1ccc(C2CCCCC2)cc1 (stereo unspecified),Activity,A549 [1],4.7%
same,Activity,A549 [2],19.3%
same,Activity,A549 [3],14.3%
same,fold change (FC),A549 [4],0.46
same,fold change (FC),A549 [5],0.71
same,fold change (FC),A549 [6],0.46
same,fold change (FC),A549 [7],0.88
same,fold change (FC),A549 [8],0.61
same,fold change (FC),A549 [9],0.59
same,fold change (FC),A549 [10],0.47
same,fold change (FC),A549 [11],0.5
same,fold change (FC),A549 [12],0.47
same,fold change (FC),A549 [13],0.37
same,Activity,A549 [14],Tde
same,fold change (FC),A549 [15],0.96
same,fold change (FC),A549 [16],0.08
same,fold change (FC),[17],0.76
same,fold change (FC),[18],0.93
same,fold change (FC),[19],0.3
same,fold change (FC),[20],1.05
same,"remaining at 0.5 h, 1 µM",[21],62.6%
same,"remaining at 2 h, 10 µM",[22],57.6%
same,"fraction unbound at 4 h, 10 µM",[23],< 0.01
same,Activity,A549 [24],36.9%
same,Activity,A549 [25],34.3%
same,Activity,A549 [26],7.9%
same,Activity,A549 [27],16.8%
same,Activity,A549 [28],43%
same,Activity,A549 [29],33.9%
same,Activity,A549 [30],2.4%
same,Activity,A549 [31],Dose-dependent effect
same,fold change (FC),[32],0.62
same,Activity,A549 [33],49.1%
same,Activity,A549 [34],12.9%
same,solubility,[35],< 1000 µg/mL
same,Papp,[36],< 1.5 ×10⁻⁶ cm/s
